test system: STAT1 (phosphorylated at Tyr701) in NCI-H1373 cells; experiment: Phospho-STAT1 (Tyr701) LANCE Ultra TR-FRET detection assay; assay type: cell-based; details: Homo sapiens, NCI-H1373, 48 h, induction of pSTAT1 in NCI-H1373 cells, 48 hours incubation; normalized to 10 uM positive control and DMSO; 4-parameter fit; read-out: NH1373 pSTAT1 EC50
Description: Phospho-STAT1 (Tyr701 LANCE Ultra TR-FRET Detection Assay
LANCE Ultra phospho-STAT1 (Tyr701) kits are designed for the detection of phosphorylated STAT1 in cell lysates using a simple, homogeneous LANCE Ultra sandwich assay (Cat. #TRF4028M). This assay is intended for assessing compound induction of endogenous levels of cellular STAT1 (phosphorylated at Tyr701) in NCI-H1373 cells. The NCI-H1373 cells are cultured in RPMI 1640 media containing 10% heat inactivated FBS, GlutaMAX, 1% Penicillin-Streptomycin. An Echo acoustic liquid handler is used to transfer 60 nanoliters of compound dilutions using the Echo Qualified, 384-well polypropylene microplate clear flat bottom source plates into a Greiner (#781080) cell culture microplate. NCI-H1373 cells are seeded into these compound-spotted culture plates at 30,000 cells/well in a 60 uL volume in growth media. The plates are incubated in a 5% CO2 humidified incubator at 37° C. for 48 hours. […] Briefly, […] of supplemented lysis buffer is added to each well and allowed to shake for 1 hour at 400 rpm. Next, 5 ul of remixed antibody solutions (vol/vol) prepared in detection buffer are added to each well and allowed to incubate at room temperature overnight. After spinning the plate down at 300 rpm for 1 min, the plate is read on an EnVision plate reader set up for Eu3+ Cryptate and fluorescence emission is measured at two different wavelengths (665 nm and 620 nm). The HTRF ratio is then calculated ([…]) for each well to determine the amount of pSTAT1 in the cell lysate, and the data is then normalized to 10 uM (S)-5-((1-(3-oxo-3-(4-(5-(trifluoromethyl)pyrimidin-2-yl)piperazin-1-yl)propoxy)propan-2-yl)amino)-4-(trifluoromethyl)pyridazin-3(2H)-one positive and DMSO negative controls. The values were then plotted as a function of compound concentration and a 4-parameter fit was applied to derive the EC50 values.

Compared with `N#Cc1cnc(-c2cc3ccn(C[C@@H]4CCC[C@H](Nc5cn[nH]c(=O)c5C(F)(F)F)C4)c(=O)c3c(F)c2F)nc1` [Example 29, 2-(7,8-difluoro-1-oxo-2-(((1R,3S)-3-((6-oxo-5-(trifluoromethyl)-1,6-dihydropyridazin-4-yl)amino)cyclohexyl)methyl)-1,2-dihydroisoquinolin-6-yl)pyrimidine-5-carbonitrile], `O=c1[nH]ncc(N[C@H]2CCC[C@@H](Cn3ccc4cc(-c5ncc(OCCO)cn5)c(F)c(F)c4c3=O)C2)c1C(F)(F)F` [Example 47, 7,8-difluoro-6-(5-(2-hydroxyethoxy)pyrimidin-2-yl)-2-(((1R,3S)-3-((6-oxo-5-(trifluoromethyl)-1,6-dihydropyridazin-4-yl)amino)cyclohexyl)methyl)isoquinolin-1(2H)-one] is 2.7-fold higher in EC50: 1.8 nM for the first, 4.86 nM for the second. The first is the more potent here.

Compared with `O=c1[nH]ncc(N[C@H]2CCC[C@@H](Cn3cc(F)c4cc(-c5nc6ccccn6n5)c(F)cc4c3=O)C2)c1C(F)(F)F` [Example 32, 6-([1,2,4]triazolo[1,5-a]pyridin-2-yl)-4,7-difluoro-2-(((1R,3S)-3-((6-oxo-5-(trifluoromethyl)-1,6-dihydropyridazin-4-yl)amino)cyclohexyl)methyl)isoquinolin-1(2H)-one], `CC(C)(O)c1cnc(-c2cc3c(F)cn(C[C@@H]4CCC[C@H](Nc5cn[nH]c(=O)c5C(F)(F)F)C4)c(=O)c3cc2F)nc1` [Example 39] is 2.7-fold higher in EC50: 1.53 nM for the first, 4.2 nM for the second.

Going from `O=c1[nH]ncc(N[C@H]2CCC[C@@H](Cn3cc(F)c4cc(-c5ncc(C(F)(F)F)cn5)c(F)c(F)c4c3=O)C2)c1C(F)(F)F` [Example 33, 4,7,8-trifluoro-2-(((1R,3S)-3-((6-oxo-5-(trifluoromethyl)-1,6-dihydropyridazin-4-yl)amino)cyclohexyl)methyl)-6-(5-(trifluoromethyl)pyrimidin-2-yl)isoquinolin-1(2H)-one] to `CC(F)(F)c1cnc(-c2cc3c(F)cn(C[C@@H]4CCC[C@H](Nc5cn[nH]c(=O)c5C(F)(F)F)C4)c(=O)c3c(F)c2F)nc1` [Example 43], the EC50 rises from 1.51 nM to 2.6 nM (1.7-fold).

`O=c1[nH]ncc(N[C@H]2CCC[C@@H](Cn3cc(F)c4cc(-c5ncc(C(F)F)cn5)c(F)c(F)c4c3=O)C2)c1C(F)(F)F` [Example 34, 6-(5-(difluoromethyl)pyrimidin-2-yl)-4,7,8-trifluoro-2-(((1R,3S)-3-((6-oxo-5-(trifluoromethyl)-1,6-dihydropyridazin-4-yl)amino)cyclohexyl)methyl)isoquinolin-1(2H)-one] and `O=c1[nH]ncc(O[C@H]2CCC[C@@H](Cn3cc(F)c4cc(-c5ncc(C(F)F)cn5)c(F)c(F)c4c3=O)C2)c1C(F)(F)F` [Example 52, 6-(5-(difluoromethyl)pyrimidin-2-yl)-4,7,8-trifluoro-2-(((1R,3S)-3-((6-oxo-5-(trifluoromethyl)-1,6-dihydropyridazin-4-yl)oxy)cyclohexyl)methyl)isoquinolin-1(2H)-one] are within 1.5-fold of each other in EC50: 0.952 nM for the first, 1.22 nM for the second.

`COc1cnc(-c2cc3c(F)cn(C[C@@H]4CCC[C@H](Nc5cn[nH]c(=O)c5C(F)(F)F)C4)c(=O)c3c(F)c2F)nc1` [Example 35, 4,7,8-trifluoro-6-(5-methoxypyrimidin-2-yl)-2-(((1R,3S)-3-((6-oxo-5-(trifluoromethyl)-1,6-dihydropyridazin-4-yl)amino)cyclohexyl)methyl)isoquinolin-1(2H)-one] and `[2H]C([2H])([2H])Oc1cnc(-c2cc3c(F)cn(C[C@@H]4CCC[C@H](Nc5cn[nH]c(=O)c5C(F)(F)F)C4)c(=O)c3c(F)c2F)nc1` [Example 46, 4,7,8-trifluoro-2-[[(1R,3S)-3-[[6-oxo-5-(trifluoromethyl)-1H-pyridazin-4-yl]amino]cyclohexyl]methyl]-6-[5-(trideuteriomethoxy)pyrimidin-2-yl]isoquinolin-1-one] are within 1.5-fold of each other in EC50: 1.45 nM for the first, 1.19 nM for the second.

Going from `O=c1[nH]ncc(N[C@H]2CCC[C@@H](Cn3cc(F)c4cc(-c5ncc(OCCO)cn5)c(F)c(F)c4c3=O)C2)c1C(F)(F)F` [Example 36, 4,7,8-trifluoro-6-(5-(2-hydroxyethoxy)pyrimidin-2-yl)-2-(((1R,3S)-3-((6-oxo-5-(trifluoromethyl)-1,6-dihydropyridazin-4-yl)amino)cyclohexyl)methyl)isoquinolin-1(2H)-one] to `O=c1[nH]ncc(N[C@H]2CCC[C@@H](Cn3cc(F)c4cc(-c5ncc(OCCO)cn5)c(F)cc4c3=O)C2)c1C(F)(F)F` [Example 38], the EC50 rises from 4.21 nM to 12.5 nM (3-fold).

Going from `CC(C)(O)c1cnc(-c2cc3c(F)cn(C[C@@H]4CCC[C@H](Nc5cn[nH]c(=O)c5C(F)(F)F)C4)c(=O)c3c(F)c2F)nc1` [Example 37, 4,7,8-trifluoro-6-(5-(2-hydroxypropan-2-yl)pyrimidin-2-yl)-2-(((1R,3S)-3-((6-oxo-5-(trifluoromethyl)-1,6-dihydropyridazin-4-yl)amino)cyclohexyl)methyl)isoquinolin-1(2H)-one] to `CC(C)(O)c1cnc(-c2cc3c(F)cn(C[C@@H]4CCC[C@H](Oc5cn[nH]c(=O)c5C(F)(F)F)C4)c(=O)c3c(F)c2F)nc1` [Example 48, 4,7,8-trifluoro-6-(5-(2-hydroxypropan-2-yl)pyrimidin-2-yl)-2-(((1R,3S)-3-((6-oxo-5-(trifluoromethyl)-1,6-dihydropyridazin-4-yl)oxy)cyclohexyl)methyl)isoquinolin-1(2H)-one], the EC50 falls from 2.48 nM to 1.03 nM (2.4-fold).

First: CS(=O)(=O)c1cnc(-c2cc3c(F)cn(C[C@@H]4CCC[C@H](Nc5cn[nH]c(=O)c5C(F)(F)F)C4)c(=O)c3cc2F)nc1 [Example 40, 4,7-difluoro-6-(5-methylsulfonylpyrimidin-2-yl)-2-[[(1R,3S)-3-[[6-oxo-5-(trifluoromethyl)-1H-pyridazin-4-yl]amino]cyclohexyl]methyl]isoquinolin-1-one]
Second: CS(=O)(=O)c1cnc(-c2cc3c(F)cn(C[C@@H]4CCC[C@H](Nc5cn[nH]c(=O)c5C(F)(F)F)C4)c(=O)c3c(F)c2F)nc1 [Example 41]
The EC50 of the first is 5-fold higher: 16.3 nM for the first, 3.25 nM for the second.

Going from `CC(F)(F)c1cnc(-c2cc3c(F)cn(C[C@@H]4CCC[C@H](Nc5cn[nH]c(=O)c5C(F)(F)F)C4)c(=O)c3cc2F)nc1` [Example 42] to `[2H]C([2H])([2H])Oc1cnc(-c2cc3c(F)cn(C[C@@H]4CCC[C@H](Nc5cn[nH]c(=O)c5C(F)(F)F)C4)c(=O)c3cc2F)nc1` [Example 45, 4,7-difluoro-2-[[(1R,3S)-3-[[6-oxo-5-(trifluoromethyl)-1H-pyridazin-4-yl]amino]cyclohexyl]methyl]-6-[5-(trideuteriomethoxy)pyrimidin-2-yl]isoquinolin-1-one], the EC50 rises from 2.45 nM to 10.5 nM (4.3-fold). The first is the more potent here.

`O=c1[nH]ncc(N[C@H]2CCC[C@@H](Cn3cc(F)c4cc(-c5ncc(OC(F)(F)F)cn5)c(F)c(F)c4c3=O)C2)c1C(F)(F)F` [Example 44, 4,7,8-trifluoro-2-[[(1R,3S)-3-[[6-oxo-5-(trifluoromethyl)-1H-pyridazin-4-yl]amino]cyclohexyl]methyl]-6-[5-(trifluoromethoxy)pyrimidin-2-yl]isoquinolin-1-one] and `O=c1[nH]ncc(O[C@H]2CCC[C@@H](Cn3cc(F)c4cc(-c5ncc(OC(F)(F)F)cn5)c(F)c(F)c4c3=O)C2)c1C(F)(F)F` [Example 49, 4,7,8-trifluoro-2-(((1R,3S)-3-((6-oxo-5-(trifluoromethyl)-1,6-dihydropyridazin-4-yl)oxy)cyclohexyl)methyl)-6-(5-(trifluoromethoxy)pyrimidin-2-yl)isoquinolin-1(2H)-one] are within 1.5-fold of each other in EC50: 4.17 nM for the first, 4.89 nM for the second.

Compared with `O=c1[nH]ncc(O[C@H]2CCC[C@@H](Cn3cc(F)c4cc(-c5ncc(OC(F)F)cn5)c(F)c(F)c4c3=O)C2)c1C(F)(F)F` [Example 50, 6-(5-(difluoromethoxy)pyrimidin-2-yl)-4,7,8-trifluoro-2-(((1R,3S)-3-((6-oxo-5-(trifluoromethyl)-1,6-dihydropyridazin-4-yl)oxy)cyclohexyl)methyl)isoquinolin-1(2H)-one], `COc1cnc(-c2cc3c(F)cn(C[C@@H]4CCC[C@H](Oc5cn[nH]c(=O)c5C(F)(F)F)C4)c(=O)c3c(F)c2F)nc1` [Example 53, 4,7,8-trifluoro-6-(5-methoxypyrimidin-2-yl)-2-(((1R,3S)-3-((6-oxo-5-(trifluoromethyl)-1,6-dihydropyridazin-4-yl)oxy)cyclohexyl)methyl)isoquinolin-1(2H)-one] is 1.6-fold higher in EC50: 1.29 nM for the first, 2.09 nM for the second. The first is the more potent here.

In the case of `[2H]C([2H])([2H])Oc1cnc(-c2cc3c(F)cn(C[C@@H]4CCC[C@H](Oc5cn[nH]c(=O)c5C(F)(F)F)C4)c(=O)c3c(F)c2F)nc1` [Example 51, 4,7,8-trifluoro-6-(5-(methoxy-d3)pyrimidin-2-yl)-2-(((1R,3S)-3-((6-oxo-5-(trifluoromethyl)-1,6-dihydropyridazin-4-yl)oxy)cyclohexyl)methyl)isoquinolin-1(2H)-one], the EC50 is reported as 1.22 nM.

Source: patent US20250100998A1, “PARP7 INHIBITORS” (Gilead Sciences, Inc., priority 2023, published 2025)
